Values of other authors as cited in US20070065511A1, “Controlled delivery creatine formulations and method of using the same” (priority 2004, published 2007).
Like-named read-outs stand apart in the source and are kept apart here.

What was measured:
[1] = tested on: satellite cell (SC)
[2] = ingestion of 20 to 30 g per day for several days

Structure (SMILES) | SC/fibre, time effect from baseline ([1]; week 4 of supplementation and resistance training) [%] | SC/fibre, time effect from baseline ([1]; week 8 of supplementation and resistance training) [%] | SC/fibre compared to baseline ([1]; week 16) | increase in human skeletal muscle total creatine content [2]
CN(CC(=O)O)C(=N)N [CRE, creatine] | 111 | 93 | no difference | –
CN(CC(=O)O)C(=N)N.O [creatine monohydrate] | – | – | – | greater than 20%
